# According to ChEMBL document CHEMBL3856215, “Design and synthesis of N-(5-chloro-2,4-dihydroxybenzoyl)-(R)-1,2,3,4-tetrahydroisoquinoline-3-carboxamides as novel Hsp90 inhibitors” (Eur J Med Chem, 2016):
# pIC50: −log10 of the molar value. Activity calls are given as the source filed them. No cut-off for these calls is given here.
# Tests used:
# [1] = Antiproliferative activity against human HeLa cells after 72 hrs by SRB assay; assay type: functional, cell-based
# [2] = Antiproliferative activity against human MDA-MB-231 cells after 72 hrs by SRB assay; assay type: functional, cell-based; settings: MDA-MB-231, 72 h
# [3] = molecular target: Heat shock protein HSP 90-alpha (Homo sapiens) (UniProt P07900); test: Induction of thermal stabilization of Hsp90alpha in human 293T cells preincubated for 3 hrs followed by […] at 55 degC and subsequently […] at room temperature by Western blot method; assay type: cell-based
# [4] = molecular target: T1, Heat shock protein HSP90 (Homo sapiens) (UniProt P07900+P08238); test: Inhibition of Hsp90 in human MDA-MB-231 cells assessed as downregulation of C-raf expression after 24 hrs by Western blot analysis; assay type: cell-based
# [5] = molecular target: T1, Heat shock protein HSP90 (Homo sapiens); test: Inhibition of Hsp90 in human MDA-MB-231 cells assessed as downregulation of CDK4 expression after 24 hrs by Western blot analysis; assay type: cell-based
# [6] = molecular target: Heat shock protein HSP 90-alpha (Homo sapiens) (UniProt P07900); test: Induction of thermal stabilization of Hsp90alpha in human 293T cells at 10 uM preincubated for 3 hrs followed by […] at 37 to 61 degC and subsequently […] at room temperature by Western blot method; assay type: cell-based
# [7] = molecular target: T1, Heat shock protein HSP90 (Homo sapiens); test: Inhibition of Hsp90 in human MDA-MB-231 cells assessed as upregulation of Hsp70 expression after 24 hrs by Western blot analysis; assay type: cell-based
# [8] = molecular target: T1, Heat shock protein HSP90 (Homo sapiens); test: Inhibition of Hsp90 in human MDA-MB-231 cells assessed as downregulation of Cdc-2 expression after 24 hrs by Western blot analysis; assay type: cell-based
# [9] = molecular target: T1, Heat shock protein HSP90 (Homo sapiens); test: Inhibition of Hsp90 in human MDA-MB-231 cells assessed as downregulation of Her2 expression after 24 hrs by Western blot analysis; assay type: cell-based
Structure (SMILES),pIC50 [1],pIC50 [2],other results
CCCNC(=O)[C@H]1Cc2ccccc2CN1C(=O)c1cc(Cl)c(O)cc1O,5.40,5.59,–
CC(C)NC(=O)[C@@H]1Cc2ccccc2CN1C(=O)c1cc(Cl)c(O)cc1O,5.15,5.24,–
CNC(=O)[C@H]1Cc2ccccc2CN1C(=O)c1cc(Cl)c(O)cc1O,5.12,5.03,–
O=C([C@@H]1Cc2ccccc2CN1C(=O)c1cc(Cl)c(O)cc1O)N1CCCCC1,5.05,5.02,–
O=C(NC1CCCC1)[C@H]1Cc2ccccc2CN1C(=O)c1cc(Cl)c(O)cc1O,5.27,5.45,–
C=CCNC(=O)[C@@H]1Cc2ccccc2CN1C(=O)c1cc(Cl)c(O)cc1O,5.15,5.17,–
CCN(CC)C(=O)[C@H]1Cc2ccccc2CN1C(=O)c1cc(Cl)c(O)cc1O,5.31,5.65,–
CNC(=O)[C@@H]1Cc2ccccc2CN1C(=O)c1cc(Cl)c(O)cc1O,< 5.00,5.03,–
COC1=C2C[C@@H](C)C[C@H](OC)[C@H](O)[C@@H](C)/C=C(\C)[C@H](OC(N)=O)[C@@H](OC)/C=C\C=C(/C)C(=O)NC(=CC1=O)C2=O [GELDANAMYCIN],7.22,7.52,–
O=C(Nc1ccccc1)[C@@H]1Cc2ccccc2CN1C(=O)c1cc(Cl)c(O)cc1O,< 5.00,< 5.00,–
O=C(NC1CCCCC1)[C@@H]1Cc2ccccc2CN1C(=O)c1cc(Cl)c(O)cc1O,5.27,5.14,–
O=C(NCCc1ccccc1)[C@H]1Cc2ccccc2CN1C(=O)c1cc(Cl)c(O)cc1O,5.32,5.58,–
CCCNC(=O)[C@@H]1Cc2ccccc2CN1C(=O)c1cc(Cl)c(O)cc1O,5.12,5.27,–
O=C(NC1CCCC1)[C@@H]1Cc2ccccc2CN1C(=O)c1cc(Cl)c(O)cc1O,< 5.00,< 5.00,–
CCNC(=O)[C@H]1Cc2ccccc2CN1C(=O)c1cc(Cl)c(O)cc1O,5.34,5.34,–
CC(C)NC(=O)[C@H]1Cc2ccccc2CN1C(=O)c1cc(Cl)c(O)cc1O,5.51,5.60,–
O=C(NCCc1ccccc1)[C@@H]1Cc2ccccc2CN1C(=O)c1cc(Cl)c(O)cc1O,< 5.00,5.04,–
O=C(NCc1ccccc1)[C@H]1Cc2ccccc2CN1C(=O)c1cc(Cl)c(O)cc1O,5.76,6.01,Activity [3]: Dose-dependent effect; inhibition [4]: Dose-dependent effect; inhibition [5]: Dose-dependent effect; Activity [6]: Active; inhibition [7]: Dose-dependent effect; inhibition [8]: Dose-dependent effect; inhibition [9]: Dose-dependent effect
C=CCNC(=O)[C@H]1Cc2ccccc2CN1C(=O)c1cc(Cl)c(O)cc1O,5.51,5.67,–
O=C(Nc1ccccc1)[C@H]1Cc2ccccc2CN1C(=O)c1cc(Cl)c(O)cc1O,5.57,5.72,–
O=C(NC1CCCCC1)[C@H]1Cc2ccccc2CN1C(=O)c1cc(Cl)c(O)cc1O,5.45,5.69,–
CCNC(=O)[C@@H]1Cc2ccccc2CN1C(=O)c1cc(Cl)c(O)cc1O,5.29,5.41,–
O=C([C@H]1Cc2ccccc2CN1C(=O)c1cc(Cl)c(O)cc1O)N1CCCCC1,5.46,5.79,–
CCN(CC)C(=O)[C@@H]1Cc2ccccc2CN1C(=O)c1cc(Cl)c(O)cc1O,5.11,5.21,–
O=C([C@H]1Cc2ccccc2CN1C(=O)c1cc(Cl)c(O)cc1O)N1CCCC1,5.40,5.71,–
O=C([C@@H]1Cc2ccccc2CN1C(=O)c1cc(Cl)c(O)cc1O)N1CCCC1,5.01,5.10,–
C=CCNC1=C2C[C@@H](C)C[C@H](OC)[C@H](O)[C@@H](C)/C=C(\C)[C@H](OC(N)=O)[C@@H](OC)/C=C\C=C(/C)C(=O)NC(=CC1=O)C2=O [TANESPIMYCIN],6.70,6.28,–
O=C(NCc1ccccc1)[C@@H]1Cc2ccccc2CN1C(=O)c1cc(Cl)c(O)cc1O,5.34,5.39,–
